Results published in patent publication US20060069132A1, “Azolecarboxamide herbicides” (priority 2004, published 2006).

Legend:
blackgrass = assay: Test C postemergence herbicide test; format: in vivo, Alopecurus myosuroides
In short: (§1)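 Plants were grown to the 1- to 4-leaf stage (2–18 cm) and then treated postemergence, or grown to the 2-leaf stage for the flooded paddy test. They were held in a greenhouse for 12 to 14 days and then scored by eye against controls, where 0 is no effect and 100 is complete control.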

downy bromegrass [1] = assay: Test E pre-/postemergence herbicide test; format: in vivo, Bromus tectorum; conditions: Preemergence
In short: (§2)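 Visual 0–100 rating vs untreated controls (0 = no effect, 100 = complete control), 12–14 d after treatment in greenhouse. Pre- and postemergence (2–18 cm, 1- to 4-leaf) applications; compounds in non-phytotoxic solvent with surfactant.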

goosegrass = assay: Test E pre-/postemergence herbicide test; format: in vivo, Eleusine indica; conditions: Preemergence
In short: as §2

wild oat = assay: Test C postemergence herbicide test; format: in vivo, Avenafatua
In short: as §1

common sowthistle = assay: Test E pre-/postemergence herbicide test; format: in vivo, Sonchus oleraceous; conditions: Preemergence
In short: as §2

field bindweed = assay: Test E pre-/postemergence herbicide test; format: in vivo, Convolvulus arvensis; conditions: Preemergence
In short: as §2

soybean = assay: Test C pre-/postemergence herbicide test; format: in vivo, Glycine max
In short: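 Pre/post spray; non-phytotoxic solvent + surfactant. Post-timing 1–4 leaves, 2–18 cm. Read-out: visual % control vs untreated, day 12–14, greenhouse.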

downy bromegrass [2] = assay: Test C postemergence herbicide test; format: in vivo, Bromus tectorum
In short: as §1

Italian ryegrass = assay: Test C postemergence herbicide test; format: in vivo, Lolium multiflorum
In short: as §1

common mallow = assay: Test E pre-/postemergence herbicide test; format: in vivo, Malva sylvestris; conditions: Preemergence
In short: as §2

green foxtail = assay: Test E pre-/postemergence herbicide test; format: in vivo, Setaria viridis; conditions: Preemergence
In short: as §2

[3] = Postemergence, 500 g ai/ha, scale 0 to 100
[4] = Postemergence, 250 g ai/ha, scale 0 to 100, 0 no effect, 100 complete control
[5] = postemergence, 125 g ai/ha, scale 0 to 100
[6] = postemergence, 62 g ai/ha, scale 0 to 100
[7] = 125 g ai/ha, scale 0 (no effect) to 100 (complete control)
[8] = 250 g ai/ha, scale 0 (no effect) to 100 (complete control)
[9] = 500 g ai/ha, scale 0 (no effect) to 100 (complete control)
[10] = postemergence, 31 g ai/ha, scale 0 to 100

## CCNC(=O)c1cccc(NC(=O)c2cc(C(C)(C)C)nn2CC)n1 [Compound 144]
blackgrass; [3]
  Blackgrass plant response rating: 40
blackgrass; [4]
  Plant response rating, Blackgrass: 40
blackgrass; [5]
  Plant response rating, Blackgrass: 30
blackgrass; [6]
  Plant response rating, Blackgrass: 30
Downy bromegrass [1]; 62 g ai/ha, scale 0 to 100
  Plant response rating, Bromegrass, Downy: 20
Downy bromegrass [1]; [7]
  Plant response rating, Bromegrass, Downy: 50
Downy bromegrass [1]; [8]
  Plant response rating, Bromegrass, Downy: 60
Downy bromegrass [1]; [9]
  Plant response rating, Bromegrass, Downy: 80
goosegrass; 62 g ai/ha, scale 0 to 100
  Plant response rating, Goosegrass: 20
goosegrass; [7]
  Plant response rating, Goosegrass: 50
goosegrass; [8]
  Plant response rating, Goosegrass: 80
goosegrass; [9]
  Plant response rating, Goosegrass: 80
Wild oat; [3]
  Oat, Wild plant response rating: 50
Wild oat; [4]
  Plant response rating, Oat, Wild: 50
Wild oat; [5]
  Plant response rating, Oat, Wild: 50
Wild oat; [6]
  Plant response rating, Oat, Wild: 30
Common sowthistle; 62 g ai/ha, scale 0 to 100
  Plant response rating, Sowthistle: 10
Common sowthistle; [7]
  Plant response rating, Sowthistle: 50
Common sowthistle; [8]
  Plant response rating, Sowthistle: 90
Common sowthistle; [9]
  Plant response rating, Sowthistle: 95
Field bindweed; 62 g ai/ha, scale 0 to 100
  Plant response rating, Bindweed, Field: 0
Field bindweed; [8]
  Plant response rating, Bindweed, Field: 50
Field bindweed; [9]
  Plant response rating, Bindweed, Field: 80
soybean; 62 g ai/ha, preemergence
  Plant response rating (0 = no effect, 100 = complete control), Soybean: 0
soybean; 125 g ai/ha, scale 0 (no effect) to 100 (complete control), visual, 12 to 14 days, preemergence
  Plant response rating, Soybean: 40
soybean; [3]
  Soybean plant response rating: 90
soybean; [4]
  Plant response rating, Soybean: 90
soybean; Preemergence, 500 g ai/ha, scale 0 to 100, 0 no effect, 100 complete control
  Soybean plant response rating: 80
soybean; [5]
  Plant response rating, Soybean: 85
soybean; [6]
  Plant response rating, Soybean: 70
Downy bromegrass [2]; [3]
  Bromegrass, Downy plant response rating: 40
Downy bromegrass [2]; [4]
  Plant response rating, Bromegrass, Downy: 40
Downy bromegrass [2]; [5]
  Plant response rating, Bromegrass, Downy: 40
Downy bromegrass [2]; [6]
  Plant response rating, Bromegrass, Downy: 20
Italian ryegrass; [3]
  Ryegrass, Italian plant response rating: 50
Italian ryegrass; [4]
  Plant response rating, Ryegrass, Italian: 40
Italian ryegrass; [5]
  Plant response rating, Ryegrass, Italian: 20
Italian ryegrass; [6]
  Plant response rating, Ryegrass, Italian: 20
Common mallow; 62 g ai/ha, scale 0 to 100
  Plant response rating, Mallow: 60
Common mallow; [7]
  Plant response rating, Mallow: 60
Common mallow; [8]
  Plant response rating, Mallow: 70
Common mallow; [9]
  Plant response rating, Mallow: 95
Green foxtail; 62 g ai/ha, scale 0 to 100
  Plant response rating, Foxtail, Green: 10
Green foxtail; [7]
  Plant response rating, Foxtail, Green: 50
Green foxtail; [8]
  Plant response rating, Foxtail, Green: 80
Green foxtail; [9]
  Plant response rating, Foxtail, Green: 90

## CCN1N=C(C(C)(C)C)CC1C(=O)Nc1cc(C(=O)N(C)C)ccc1F (centres unmarked) [Compound 268, N-[5-[(dimethylamino)carbonyl]-2-fluorophenyl]-3-(1,1-dimethylethyl)-1-ethyl-4,5-dihydro-1H-pyrazole-5-carboxamide]
blackgrass; [4]
  Plant response rating, Blackgrass: 60
blackgrass; [5]
  Plant response rating, Blackgrass: 45
blackgrass; [10]
  Plant response rating, Blackgrass: 0
blackgrass; [6]
  Plant response rating, Blackgrass: 30
Downy bromegrass [1]; 125 g ai/ha, scale 0 to 100
  Plant response rating, Bromegrass, Downy: 80
Downy bromegrass [1]; [8]
  Plant response rating, Bromegrass, Downy: 80
Downy bromegrass [1]; [9]
  Plant response rating, Bromegrass, Downy: 100
goosegrass; 62 g ai/ha, scale 0 to 100
  Plant response rating, Goosegrass: 70
goosegrass; 125 g ai/ha, scale 0 to 100
  Plant response rating, Goosegrass: 80
goosegrass; [8]
  Plant response rating, Goosegrass: 95
goosegrass; [9]
  Plant response rating, Goosegrass: 95
Wild oat; [4]
  Plant response rating, Oat, Wild: 65
Wild oat; [5]
  Plant response rating, Oat, Wild: 35
Wild oat; [6]
  Plant response rating, Oat, Wild: 20
Common sowthistle; 62 g ai/ha, scale 0 to 100
  Plant response rating, Sowthistle: 80
Common sowthistle; 125 g ai/ha, scale 0 to 100
  Plant response rating, Sowthistle: 100
Common sowthistle; [8]
  Plant response rating, Sowthistle: 100
Common sowthistle; [9]
  Plant response rating, Sowthistle: 100
Field bindweed; 62 g ai/ha, scale 0 to 100
  Plant response rating, Bindweed, Field: 0
Field bindweed; 125 g ai/ha, scale 0 to 100
  Plant response rating, Bindweed, Field: 20
Field bindweed; [8]
  Plant response rating, Bindweed, Field: 40
Field bindweed; [9]
  Plant response rating, Bindweed, Field: 70
soybean; Glycine max, pre-emergence, 62 g ai/ha, preemergence, scale 0 to 100, read-out: Plant response rating, Soybean
  plant injury at 62 g/ha: 60%
soybean; Glycine max, pre-emergence, 250 g ai/ha, scale 0-100, read-out: Plant response rating, Soybean
  plant injury at 250 g/ha: 90%
soybean; Glycine max, pre-emergence, 500 g ai/ha, scale 0 to 100 (0 no effect, 100 complete control), visual, 12 to 14 days, read-out: Plant response rating, Soybean
  plant injury at 500 g/ha: 95%
Downy bromegrass [2]; [4]
  Plant response rating, Bromegrass, Downy: 40
Downy bromegrass [2]; [5]
  Plant response rating, Bromegrass, Downy: 30
Downy bromegrass [2]; [10]
  Plant response rating, Bromegrass, Downy: 0
Downy bromegrass [2]; [6]
  Plant response rating, Bromegrass, Downy: 10
Italian ryegrass; [4]
  Plant response rating, Ryegrass, Italian: 40
Italian ryegrass; [5]
  Plant response rating, Ryegrass, Italian: 30
Italian ryegrass; [6]
  Plant response rating, Ryegrass, Italian: 10
Common mallow; 62 g ai/ha, scale 0 to 100
  Plant response rating, Mallow: 50
Common mallow; 125 g ai/ha, scale 0 to 100
  Plant response rating, Mallow: 50
Common mallow; [8]
  Plant response rating, Mallow: 80
Common mallow; [9]
  Plant response rating, Mallow: 90
Green foxtail; 62 g ai/ha, scale 0 to 100
  Plant response rating, Foxtail, Green: 70
Green foxtail; 125 g ai/ha, scale 0 to 100
  Plant response rating, Foxtail, Green: 95
Green foxtail; [8]
  Plant response rating, Foxtail, Green: 100
Green foxtail; [9]
  Plant response rating, Foxtail, Green: 100
